Experimental data as given in patent US9555038B2, “Heterocycle-substituted tetracyclic compounds and methods of use thereof for the treatment of viral diseases” (Merck Sharp & Dohme Corp., priority 2013, dated 2017).
Where two headings read alike, the source gives them in different places.

Key:
HCV replicon 1A = test: Cell-based HCV Replicon Assay A, replicon 1A
Procedure, shortened: (§1)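 2000 cells/well; 10 serial dilutions, top concentration 333.3 nM to 1.667 nM; 0.5% DMSO, 5% FBS; 3 days; lysis; multiplex TaqMan RT-PCR (NS5B/Neo plus cyclophilin), RNA from linear Ct standard curves.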

HCV replicon 1AY93H = test: Cell-based HCV Replicon Assay A, replicon 1AY93H
Procedure, shortened: as §1

HCV replicon 2B = test: Cell-based HCV Replicon Assay A, replicon 2B
Procedure, shortened: as §1

HCV replicon 1AQ30D = test: Cell-based HCV Replicon Assay B, replicon 1AQ30D
Procedure, shortened: (§2)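 EC50 defined as the drug concentration giving a CT increase of 1 above projected baseline, from real-time RT-PCR of replicon RNA using genotype-specific primers and probes. Cells were seeded in 5% FBS, dosed after 24 h and incubated 3 days before lysis.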

HCV replicon 1B = test: Cell-based HCV Replicon Assay B, replicon 1B
Procedure, shortened: as §2

[1] = read-out: 1A Y93H IC50, replicon 1AY93H
[2] = Hepatitis C virus, read-out: 1A Q30D IC50 (nM), replicon 1AQ30D
[3] = Hepatitis C virus, read-out: 1A Y93H IC50 (nM), replicon 1AY93H
[4] = Hepatitis C virus, read-out: 2B IC50 (nM), replicon 2B
[5] = read-out: 1A Q30D IC50, replicon 1AQ30D

SMILES | IC50 (HCV replicon 1A; Hepatitis C virus) | IC50 (HCV replicon 1AY93H; [1]) | IC50 (HCV replicon 2B; read-out: 2B IC50, replicon 2B) | IC50 (HCV replicon 1AQ30D; [2]) | IC50 (HCV replicon 1B; Hepatitis C virus) | IC50 (HCV replicon 1AY93H; [3]) | IC50 (HCV replicon 2B; [4]) | IC50 (HCV replicon 1AQ30D; [5]) | IC50 (HCV replicon 1A) | IC50 (HCV replicon 1B)
CCc1ncc(C2Oc3cc(-c4cnc([C@@H]5CCCN5C(=O)[C@@H](NC(=O)OC)C(C)C)[nH]4)cc(F)c3-c3cc4cc(-c5cnc([C@@H]6CCCN6C(=O)[C@@H](NC(=O)OC)C(C)C)[nH]5)ccc4n32)s1 (single isomer, unassigned) [Compound 81] | 2.7 pM | 0.019 nM | 0.027 nM | 0.384 nM | 2 pM | – | – | – | – | –
CCc1ncc(C2Oc3cc(-c4cnc([C@@H]5CCCN5C(=O)[C@@H](NC(=O)OC)C(C)C)[nH]4)cc(F)c3-c3cc4cc(-c5cnc([C@@H]6C[C@H]7C[C@H]7N6C(=O)[C@@H](CC(=O)OC)C(C)C)[nH]5)ccc4n32)s1 (single isomer, unassigned) [Compound 83] | 3 pM | 0.0067 nM | 0.048 nM | 0.12 nM | 3 pM | – | – | – | – | –
COC(=O)N[C@H](C(=O)N1CCC[C@H]1c1ncc(-c2cc(F)c3c(c2)OC(c2nc4c(s2)CCCC4)n2c-3cc3cc(-c4cnc([C@@H]5CCCN5C(=O)[C@@H](NC(=O)OC)C(C)C)[nH]4)ccc32)[nH]1)C(C)C (single isomer, unassigned) [Compound 87] | 2.5 pM | – | – | – | 864 pM | 0.0714 nM | 0.003 nM | 0.068 nM | – | –
COC(=O)N[C@H](C(=O)N1CCC[C@H]1c1ncc(-c2cc(F)c3c(c2)OC(c2cnc(C(C)C)s2)n2c-3cc3cc(-c4cnc([C@@H]5C[C@H]6C[C@H]6N5C(=O)[C@@H](NC(=O)OC)C(C)C)[nH]4)ccc32)[nH]1)C(C)C (single isomer, unassigned) [Compound 89] | 1.7 pM | – | – | 0.081 nM | 3 pM | 0.0028 nM | 0.029 nM | – | – | –
CCCc1ncc(C2Oc3cc(-c4cnc([C@@H]5CCCN5C(=O)[C@@H](NC(=O)OC)C(C)C)[nH]4)cc(F)c3-c3cc4cc(-c5cnc([C@@H]6C[C@H]7C[C@H]7N6C(=O)[C@@H](NC(=O)OC)C(C)C)[nH]5)ccc4n32)s1 (single isomer, unassigned) [Compound 90] | 2.5 pM | 0.0038 nM | 0.018 nM | 0.09 nM | 3 pM | – | – | – | – | –
CCc1ncc(C2Oc3cc(-c4cnc([C@@H]5CCCN5C(=O)[C@@H](NC(=O)OC)C(C)C)[nH]4)cc(F)c3-c3cc4cc(-c5cnc([C@@H]6C[C@H]7C[C@H]7N6C(=O)C(NC(=O)OC)C6CCOC(C)(C)C6)[nH]5)ccc4n32)s1 (single isomer, unassigned) [Compound 92] | 3.7 pM | 0.0045 nM | 0.005 nM | – | 6 pM | – | – | 0.064 nM | – | –
CCc1ncc(C2Oc3cc(-c4cnc([C@@H]5CCCN5C(=O)[C@@H](NC(=O)OC)C(C)C)[nH]4)cc(F)c3-c3cc4cc(-c5cnc([C@@H]6C[C@H]7C[C@H]7N6C(=O)C(NC(=O)OC)C6CCOC(C)(C)C6)[nH]5)ccc4n32)s1 (single isomer, unassigned) [Compound 93] | – | 0.0426 nM | 0.069 nM | – | – | – | – | 0.631 nM | 3.6 pM | 3 pM
CCc1ncc(C2Oc3cc(-c4cnc([C@@H]5CCCN5C(=O)[C@@H](NC(=O)OC)C(C)C)[nH]4)cc(F)c3-c3cc4cc(-c5cnc([C@@H]6C[C@H]7C[C@H]7N6C(=O)C(NC(=O)OC)C6CCOC(C)(C)C6)[nH]5)ccc4n32)s1 (single isomer, unassigned) [Compound 94] | – | 0.0035 nM | 0.004 nM | – | – | – | – | 0.045 nM | 3 pM | 3 pM
CCc1ncc(C2Oc3cc(-c4cnc([C@@H]5CCCN5C(=O)[C@@H](NC(=O)OC)C(C)C)[nH]4)cc(F)c3-c3cc4cc(-c5cnc([C@@H]6C[C@H]7C[C@H]7N6C(=O)C(NC(=O)OC)C6CCOC(C)(C)C6)[nH]5)ccc4n32)s1 (single isomer, unassigned) [Compound 95] | – | 0.0369 nM | 0.085 nM | – | – | – | – | 0.328 nM | 2.9 pM | 5 pM
CCc1ncc(C2Oc3cc(-c4cnc([C@@H]5CCCN5C(=O)[C@@H](NC(=O)OC)C(C)C)[nH]4)cc(F)c3-c3cc4cc(-c5cnc([C@@H]6C[C@H]7C[C@H]7N6C(=O)[C@@H](NC(=O)OC)C6C[C@@H](C)O[C@@H](C)C6)[nH]5)ccc4n32)s1 (single isomer, unassigned) [Compound 96] | 2.4 pM | 0.0037 nM | 0.006 nM | – | 3 pM | – | – | 0.02 nM | – | –
CCc1ncc(C2Oc3cc(-c4cnc([C@@H]5CCCN5C(=O)[C@@H](NC(=O)OC)C(C)C)[nH]4)cc(F)c3-c3cc4cc(-c5cnc([C@@H]6C[C@H]7C[C@H]7N6C(=O)[C@@H](NC(=O)OC)C6C[C@@H](C)O[C@@H](C)C6)[nH]5)ccc4n32)s1 (single isomer, unassigned) [Compound 97] | – | 0.0278 nM | 0.098 nM | – | – | – | – | 0.287 nM | 2.5 pM | 3 pM
CCCc1ncc(C2Oc3cc(-c4cnc([C@@H]5CCCN5C(=O)[C@@H](NC(=O)OC)C(C)C)[nH]4)cc(F)c3-c3cc4cc(-c5cnc([C@@H]6C[C@H]7C[C@H]7N6C(=O)C(NC(=O)OC)C6CCOC(C)(C)C6)[nH]5)ccc4n32)s1 (single isomer, unassigned) [Compound 104] | 2.8 pM | 0.0041 nM | 0.004 nM | – | 3 pM | – | – | 0.028 nM | – | –
CCCc1ncc(C2Oc3cc(-c4cnc([C@@H]5CCCN5C(=O)[C@@H](NC(=O)OC)C(C)C)[nH]4)cc(F)c3-c3cc4cc(-c5cnc([C@@H]6C[C@H]7C[C@H]7N6C(=O)C(NC(=O)OC)C6CCOC(C)(C)C6)[nH]5)ccc4n32)s1 (single isomer, unassigned) [Compound 106] | – | 0.0336 nM | 0.067 nM | – | – | – | – | 0.284 nM | 3.2 pM | 5 pM
CCCc1ncc(C2Oc3cc(-c4cnc([C@@H]5CCCN5C(=O)[C@@H](NC(=O)OC)C(C)C)[nH]4)cc(F)c3-c3cc4cc(-c5cnc([C@@H]6C[C@H]7C[C@H]7N6C(=O)C(NC(=O)OC)C6CCOC(C)(C)C6)[nH]5)ccc4n32)s1 (single isomer, unassigned) [Compound 107] | – | 0.0292 nM | 0.017 nM | – | – | – | – | 0.233 nM | 2.6 pM | 4 pM
CCCc1ncc(C2Oc3cc(-c4cnc([C@@H]5CCCN5C(=O)[C@@H](NC(=O)OC)C(C)C)[nH]4)cc(F)c3-c3cc4cc(-c5cnc([C@@H]6C[C@H]7C[C@H]7N6C(=O)C(NC(=O)OC)C6C[C@@H](C)O[C@@H](C)C6)[nH]5)ccc4n32)s1 (single isomer, unassigned) [Compound 108] | 2.8 pM | 0.0033 nM | 0.007 nM | – | 4 pM | – | – | 0.016 nM | – | –
CCCc1ncc(C2Oc3cc(-c4cnc([C@@H]5CCCN5C(=O)[C@@H](NC(=O)OC)C(C)C)[nH]4)cc(F)c3-c3cc4cc(-c5cnc([C@@H]6C[C@H]7C[C@H]7N6C(=O)C(NC(=O)OC)C6C[C@@H](C)O[C@@H](C)C6)[nH]5)ccc4n32)s1 (single isomer, unassigned) [Compound 109] | – | 0.0303 nM | 0.069 nM | – | – | – | – | 0.176 nM | 3.4 pM | 4 pM
COC(=O)NC(C(=O)N1[C@@H]2C[C@@H]2C[C@H]1c1ncc(-c2ccc3c(c2)cc2n3C(c3cnc(C4CC4)s3)Oc3cc(-c4cnc([C@@H]5CC6CC6N5C(=O)[C@@H](NC(=O)OC)C(C)C)[nH]4)cc(F)c3-2)[nH]1)C1CCOC(C)(C)C1 (single isomer, unassigned) [Compound 110] | 3.3 pM | – | – | 0.027 nM | 4 pM | 0.003 nM | 0.007 nM | – | – | –
COC(=O)NC(C(=O)N1[C@@H]2C[C@@H]2C[C@H]1c1ncc(-c2ccc3c(c2)c(F)c2n3C(c3cnc(C4CC4)s3)Oc3cc(-c4cnc([C@@H]5CCCN5C(=O)[C@@H](NC(=O)OC)C(C)C)[nH]4)cc(F)c3-2)[nH]1)C1CCOC(C)(C)C1 (single isomer, unassigned) [Compound 112] | 1.9 pM | 0.0044 nM | 0.004 nM | 0.036 nM | 3 pM | – | – | – | – | –
COC(=O)N[C@H](C(=O)N1CCC[C@H]1c1ncc(-c2cc(C)c3c(c2)OC(c2cnc(C4CC4)s2)n2c-3cc3cc(-c4cnc([C@@H]5CCCN5C(=O)[C@@H](NC(=O)OC)C(C)C)[nH]4)ccc32)[nH]1)C(C)C (single isomer, unassigned) [Compound 200] | 4.9 pM | – | – | 0.961 nM | 3 pM | 0.0796 nM | 0.014 nM | – | – | –
COC(=O)N[C@H](C(=O)N1CCC[C@H]1c1ncc(-c2cc(C)c3c(c2)OC(c2cnc(C4CC4)s2)n2c-3cc3cc(-c4cnc([C@@H]5C[C@H]6C[C@H]6N5C(=O)[C@@H](NC(=O)OC)C(C)C)[nH]4)ccc32)[nH]1)C(C)C (single isomer, unassigned) [Compound 203] | 4.47 pM | – | – | 0.654 nM | 3 pM | 0.0166 nM | 0.007 nM | – | – | –
COC(=O)N[C@H](C(=O)N1CCC[C@H]1c1ncc(-c2cc(C)c3c(c2)OC(c2cnc(C4CCC4)s2)n2c-3cc3cc(-c4cnc([C@@H]5CCCN5C(=O)[C@@H](NC(=O)OC)C(C)C)[nH]4)ccc32)[nH]1)C(C)C (single isomer, unassigned) [Compound 204] | 4 pM | – | – | 0.772 nM | 2 pM | 0.0579 nM | 0.013 nM | – | – | –
